Patent US20200138827A1, “SMALL MOLECULE MODULATORS OF HUMAN STING” (Curadev Pharma Limited, priority 2017, published 2020)

Molecular target: T1, WT/R232 STING protein (Homo sapiens, UniProt Q86WV6, H232R)
T1 construct: host or cells: HEK293T
Test: Luciferase reporter assay in HEK293T-hSTING-Luciferase cells, WT/R232
Assay type: cell-based
Conditions: 20 hr stimulation, read-out: R232 Activity (EC50 range)
Procedure, shortened: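 […], read by luminescence from supernatant after 20 h compound stimulation. Cells: clonally selected HEK293T (5×10^5/well) stably carrying WT/R232 human STING and a luciferase reporter under five tandem ISREs fused to an ISG54 minimal promoter.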

T1 sequence (Q86WV6 whole entry H232R): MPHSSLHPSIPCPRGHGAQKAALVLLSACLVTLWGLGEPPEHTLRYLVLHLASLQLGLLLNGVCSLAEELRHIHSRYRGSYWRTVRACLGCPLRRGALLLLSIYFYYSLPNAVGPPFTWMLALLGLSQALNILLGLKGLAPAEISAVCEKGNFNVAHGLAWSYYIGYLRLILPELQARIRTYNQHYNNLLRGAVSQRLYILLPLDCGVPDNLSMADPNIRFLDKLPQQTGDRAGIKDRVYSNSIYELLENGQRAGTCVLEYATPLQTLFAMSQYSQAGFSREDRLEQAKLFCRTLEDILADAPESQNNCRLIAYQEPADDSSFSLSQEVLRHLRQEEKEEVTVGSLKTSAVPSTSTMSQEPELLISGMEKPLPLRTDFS

| Compound | EC50 |
| --- | --- |
| O=C(NC(c1ccccc1)C1CCCCC1)c1ccc2c(c1)N(Cc1ccccc1F)C(=O)CS2 (centres unmarked) [Example 110, N-(cyclohexyl (phenyl)methyl)-4-(2-fluorobenzyl)-3-oxo-3,4-dihydro-2H-benzo[b][1,4] thiazine-6-carboxamide] | > 10 µM |
| CC(c1ccccc1)N1C(=O)CSc2ccc(C(=O)NCc3ccco3)cc21 (centres unmarked) [Example 29, N-(furan-2-ylmethyl)-3-oxo-4-(1-phenylethyl)-3,4-dihydro-2H-benzo[b-1,4]thiazine-6-carboxamide] | > 10 µM |
| CC(NC(=O)c1ccc2c(c1)N(Cc1ccc(Cl)cc1)C(=O)CS2)c1ccccc1 (centres unmarked) [Example 125, 4-(4-chlorobenzyl)-3-oxo-N-(1-phenylethyl)-3,4-dihydro-2H-benzo[b-1,4]thiazine-6-carboxamide] | > 10 µM |
| O=C(NCc1ccccc1Cl)c1ccc2c(c1)N(Cc1ccccc1)C(=O)CS2 [Example 117, 4-benzyl-N-(2-chlorobenzyl)-3-oxo-3,4-dihydro-2H-benzo[b-1,4]thiazine-6-carboxamide] | > 10 µM |
| O=C(NCc1ccco1)c1ccc2c(c1)N(Cc1cccc3ccccc13)C(=O)CS2 [Example 14, N-(furan-2-ylmethyl)-4-(naphthalen-1-ylmethyl)-3-oxo-3,4-dihydro-2H-benzo[b-1,4]thiazine-6-carboxamide] | 1 to 10 µM |
| COc1ccccc1CNC(=O)c1ccc2c(c1)N(Cc1ccccc1)C(=O)CS2 [Example 116, 4-benzyl-N-(2-methoxybenzyl)-3-oxo-3,4-dihydro-2H-benzo[b-1,4]thiazine-6-carboxamide] | > 10 µM |
| Cc1cnc(CNC(=O)c2cnc3c(c2)N(Cc2cc(F)cc(F)c2)C(=O)C(C)S3)o1 (centres unmarked) [Example 213, 1-(3,5-difluorobenzyl)-3-methyl-N-((5-methyloxazol-2-yl)methyl)-2-oxo-2,3-dihydro-1H-pyrido[2,3-b][1,4]thiazine-7-carboxamide] | > 10 µM |
| O=C(NCc1ccco1)c1ccc2c(c1)N(Cc1ccc(Cl)s1)C(=O)CS2 [Example 95, 4-((5-chlorothiophen-2-yl)methyl)-N-(furan-2-ylmethyl)-3-oxo-3,4-dihydro-2H-benzo[b-1,4]thiazine-6-carboxamide] | > 10 µM |
| O=C(NCc1ccco1)c1ccc2c(c1)N(Cc1c(F)cccc1Cl)C(=O)CO2 [Example 231, 4-(2-Chloro-6-fluorobenzyl)-N-(furan-2-ylmethyl)-3-oxo-3,4-dihydro-2H-benzo[b-1,4]oxazine-6-carboxamide] | > 10 µM |
| N#Cc1cc(C(=O)NCc2ccco2)cc2c1SCC(=O)N2Cc1ccccc1 [Example 219, 4-Benzyl-8-cyano-N-(furan-2-ylmethyl)-3-oxo-3,4-dihydro-2H-benzo[b-1,4]thiazine-6-carboxamide] | > 10 µM |
| O=C(NCc1ccco1)c1ccc2c(c1)N(Cc1ccncc1)C(=O)CS2 [Example 28, N-(furan-2-ylmethyl)-3-oxo-4-(pyridin-4-ylmethyl)-3,4-dihydro-2H-benzo[b-1,4]thiazine-6-carboxamide] | > 10 µM |
| O=C(NCc1ccco1)c1ccc2c(c1)N(Cc1cc(F)ccc1F)C(=O)CS2 [Example 100, 4-(2,5-difluorobenzyl)-N-(furan-2-ylmethyl)-3-oxo-3,4-dihydro-2H-benzo[b-1,4]thiazine-6-carboxamide] | 1 to 10 µM |
| CC(O)c1cc(C(=O)NCc2c(F)cc(F)cc2F)cc2c1SCC(=O)N2Cc1ccc(F)cc1 (centres unmarked) [Example 223, 4-(4-fluorobenzyl)-8-(1-hydroxyethyl)-3-oxo-N-(2,4,6-trifluorobenzyl)-3,4-dihydro-2H-benzo[b][1,4] thiazine-6-carboxamide] | > 10 µM |
| O=C(NCc1ccco1)c1ccc2c(c1)N(C(=O)c1ccccc1F)CCS2(=O)=O [Example 254, 4-(2-Fluorobenzoyl)-N-(furan-2-ylmethyl)-3,4-dihydro-2H-benzo[b-1,4]thiazine-6-carboxamide 1,1-dioxide] | > 10 µM |
| O=C(NCc1ccco1)c1cnc2c(c1)N(Cc1ccccc1)C(=O)CS2 [Example 180, 1-benzyl-N-(furan-2-ylmethyl)-2-oxo-2,3-dihydro-1H-pyrido[2,3-b-1,4]thiazine-7-carboxamide] | > 10 µM |
| O=C(CN1C(=O)CSc2ccc(C(=O)NCc3ccco3)cc21)Nc1ccncc1 [Example 4, N-(furan-2-ylmethyl)-3-oxo-4-(2-oxo-2-(pyridin-4-ylamino)ethyl)-3,4-dihydro-2H-benzo[b-1,4]-thiazine-6-carboxamide] | > 10 µM |
| O=C(NCc1ccco1)c1ccc2c(c1)N(Cc1c(F)cccc1Cl)C(=O)C[S+]2[O-] (centres unmarked) [Example 245, 4-(2-chloro-6-fluorobenzyl)-N-(furan-2-ylmethyl)-3-oxo-3,4-dihydro-2H-benzo[b][1,4]thiazine-6-carboxamide 1-oxide] | > 10 µM |
| O=C(NCc1ccco1)c1ccc2c(c1)N(C(=O)c1ccccc1F)CCO2 [Example 263, 4-(2-fluorobenzoyl)-N-(furan-2-ylmethyl)-3,4-dihydro-2H-benzo[b-1,4]oxazine-6-carboxamide] | > 10 µM |

| Compound | EC50 |
| --- | --- |
| O=C(NCc1ccco1)c1ccc2c(c1)N(Cc1ccccc1F)C(=O)CS2 [Example 106, 4-(2-fluorobenzyl)-N-(furan-2-ylmethyl)-3-oxo-3,4-dihydro-2H-benzo[b-1,4]thiazine-6-carboxamide] | > 10 µM |
| O=C(CN1CCSc2ccc(C(=O)NCc3ccco3)cc21)c1ccccc1 [Example 249, N-(furan-2-ylmethyl)-4-(2-oxo-2-phenylethyl)-3,4-dihydro-2H-benzo[b][1,4]thiazine-6-carboxamide] | > 10 µM |
| O=C(NCc1ccco1)c1ccc2c(c1)N(Cc1cccc(C(F)(F)F)c1)C(=O)CS2 [Example 97, N-(furan-2-ylmethyl)-3-oxo-4-(3-(trifluoromethyl)benzyl)-3,4-dihydro-2H-benzo[b-1,4]thiazine-6-carboxamide] | > 10 µM |
| Cn1cc(CNC(=O)c2ccc3c(c2)N(Cc2ccccc2)C(=O)CS3)cn1 [Example 121, 4-benzyl-N-((1-methyl-1H-pyrazol-4-yl)methyl)-3-oxo-3,4-dihydro-2H-benzo[b][1,4] thiazine-6-carboxamide] | > 10 µM |
| O=C(NCc1ccc(C(F)(F)F)cc1)c1ccc2c(c1)N(Cc1ccccc1)C(=O)CS2 [Example 72, 4-benzyl-3-oxo-N-(4-(trifluoromethyl)benzyl)-3,4-dihydro-2H-benzo[b-1,4]thiazine-6-carboxamide] | > 10 µM |
| NC(=O)CC1Sc2ccc(C(=O)NCc3ccc(F)cc3F)cc2N(Cc2cc(F)cc(F)c2)C1=O (centres unmarked) [Example 176, 2-(2-amino-2-oxoethyl)-N-(2,4-difluorobenzyl)-4-(3,5-difluorobenzyl)-3-oxo-3,4-dihydro-2H-benzo[b] [1,4]thiazine-6-carboxamide] | > 10 µM |
| O=C(NCC1CCCCC1)c1ccc2c(c1)N(Cc1ccccc1F)C(=O)CS2 [Example 16, N-(cyclo-hexylmethyl)-4-(2-fluoro-benzyl)-3-oxo-3,4-dihydro-2H-benzo[b-1,4]thiazine-6-carboxamide] | 1 to 10 µM |
| O=C(NCc1ccco1)c1ccc2c(c1)N(C(=O)c1ccccc1F)CCS2 [Example 253, 4-(2-Fluorobenzoyl)-N-(furan-2-ylmethyl)-3,4-dihydro-2H-benzo[b-1,4]thiazine-6-carboxamide] | > 10 µM |
| Cc1noc(CNC(=O)c2ccc3c(c2)N(Cc2cc(F)cc(F)c2)C(=O)C(C)S3)n1 (centres unmarked) [Example 167, 4-(3,5-difluorobenzyl)-2-methyl-N-((3-methyl-1,2,4-oxadiazol-5-yl)methyl)-3-oxo-3,4-dihydro-2H-benzo[b][1,4] thiazine-6-carboxamide] | 1 to 10 µM |
| O=C(NCc1ccco1)c1ccc2c(c1)N(C(=O)c1c(F)cccc1Cl)CCS2 [Example 256, 4-(2-chloro-6-fluorobenzoyl)-N-(furan-2-ylmethyl)-3,4-dihydro-2H-benzo[b][1,4]thiazine-6-carboxamide] | > 10 µM |
| O=C(NCC1CCCN(Cc2ccccc2)C1)c1ccc2c(c1)N(Cc1ccccc1F)C(=O)CS2 (centres unmarked) [Example 44, N-((1-benzylpiperidin-3-yl)methyl)-4-(2-fluorobenzyl)-3-oxo-3,4-dihydro-2H-benzo[b][1,4] thiazine-6-carboxamide] | > 10 µM |
| CC1(CC(=O)O)Sc2ccc(C(=O)NCc3ccco3)cc2N(Cc2ccccc2F)C1=O (centres unmarked) [Example 139, 2-(4-(2-fluorobenzyl)-6-((furan-2-ylmethyl)carbamoyl)-2-methyl-3-oxo-3,4-dihydro-2H-benzo[b-1,4]thiazin-2-yl)acetic acid] | > 10 µM |
| CN(C)CC(NC(=O)c1ccc2c(c1)N(Cc1ccccc1)C(=O)CS2)c1ccccc1 (centres unmarked) [Example 53, 4-benzyl-N-(2-(dimethylamino)-1-phenylethyl)-3-oxo-3,4-dihydro-2H-benzo[b-1,4]thiazine-6-carboxamide] | > 10 µM |
| O=C(NCC1CCCC1)c1ccc2c(c1)N(Cc1c(F)cccc1Cl)C(=O)CS2 [Example 35, 4-(2-chloro-6-fluorobenzyl)-N-(cyclopentyl-methyl)-3-oxo-3,4-dihydro-2H-benzo[b][1,4] thiazine-6-carboxamide] | > 10 µM |
| O=C(NCc1cc2cnccc2o1)c1ccc2c(c1)N(Cc1cc(F)cc(F)c1)C(=O)CC2 [Example 273, 1-(3,5-difluorobenzyl)-N-(furo[3,2-c]pyridin-2-ylmethyl)-2-oxo-1,2,3,4-tetrahydroquinoline-7-carboxamide] | > 10 µM |
| Cc1cccc(C)c1CN1C(=O)CSc2ccc(C(=O)NCc3ccco3)cc21 [Example 13, 4-(2,6-dimethyl-benzyl)-N-(furan-2-ylmethyl)-3-oxo-3,4-dihydro-2H-benzo[b-1,4]thiazine-6-carboxamide] | 1 to 10 µM |
| CC1Sc2ccc(C(=O)NCCc3c(F)cc(F)cc3F)nc2N(Cc2cc(F)cc(F)c2)C1=O (centres unmarked) [Example 174, 4-(3,5-difluorobenzyl)-2-methyl-3-oxo-N-(2,4,6-trifluoro-phenethyl)-3,4-dihydro-2H-pyrido[3,2-b][1,4]thiazine-6-carboxamide] | > 10 µM |
